The subject of data set [1] is murine donor hearts. Description: Murine ex-vivo heart perfusion after cold preservation. To be noted: for ex vivo donor heart contractility / ex vivo donor heart relaxation: HDAC inhibitor in HTK, 16 hours cold preservation. Also on record: species or system mouse. The method, then:
(§1) Male and female WT or Irg1^−/− mice (Jackson laboratories, Bar Harbor, ME) were anesthetized intraperitoneally with 80 mg/kg ketamine and 5 mg/kg xylazine, anticoagulated with heparin (2,000 U/kg iv), and the heart was rapidly exposed through a sternal incision. The aorta was cannulated and retrograde perfused in-situ with HTK solution±HDAC inhibitors. After cannulation, the heart dissected free, the left atrium was opened. For 4-OI (Cayman Chemical, 25374) experiments, donor mice were treated 4-OI (dissolved in 40% β-Cyclodextrin, 50 mg/kg intraperitoneally) or vehicle control (40% β-Cyclodextrin intraperitoneally) 2 hours prior to donor heart procurement. After dissection, the heart was stored at 4° C. with HTK or HTK with VPA for a pre-designated duration. The hearts were then mounted on a Radnoti mouse Langendorff apparatus (ADInstruments inc., Colorado Springs, CO) in constant-pressure mode (˜70 mmHg) with a modified Krebs-Henseleit buffer (KHB; in mM: 118 NaCl, 4.7 KCl, 1.25 CaCl2), 1.66 MgSO4, 24.88 NaHCO3, 1.18 KH2PO4, 5.55 glucose, and 2.0 Na-pyruvate). A balloon was placed in the LV through the left atrium and left ventricular diastolic pressure was set to ˜8 mmHg at initiation. The heart was perfused with modified Krebs-Henseleit buffer for 30 min to stabilize and then hemodynamics measurements were recorded. Myocardial temperature was maintained at 37° C. LabChart software (ADInstruments inc., Colorado Springs, CO) was used to record ventricular function, perfusion pressures, cardiac chamber temperature and myocardial temperature. After perfusing the heart for 60 minutes, the heart was removed from the ex-vivo perfusion apparatus for specimen collection. Tissue was immediately placed in liquid N2 or treated with 4% formalin.

In data set [2] the test system is murine donor hearts. Description: Murine donor heart tissue staining and Western blot (oxidative stress, antioxidant proteins, cell death). The arrangement: species or system mouse. Particulars: donor mice treated with 4-OI. The procedure: as §1
The test system of data set [3] is HL-1 murine cardiomyocytes. Description: HL-1 cardiomyocytes in HTK under normoxic or hypoxic conditions, Western blot. The data set is classed as cell-based, mouse. To be noted: for HO1 protein abundance / NRF2 / SOD1 protein abundance: normoxic and hypoxic conditions. The procedure: HL-1 murine cardiomyocytes cells (Sigma-Aldrich, SCC065) were cultured in Claycomb Medium (Sigma-Aldrich, 51800C). […] The medium was then changed to cold HTK solution and incubated in an hypoxic incubation chamber (Stem cell technologies). The chamber cold hypoxic conditions consist premixed of 1% Oxygen and 5% Carbon dioxide gas (Cryogenic gases, Detroit MI) with cell culture at 4° C. for 2 hours. After cold preservation culture, the medium was changed to 37° C. DMEM at atmospheric conditions and cells were incubated for an additional 2 hours. Cell lysates were then collected for Western blot analysis.

The next data set relates to H9C2 cardioblast. Description: Doxorubicin-treated H9C2 cardioblast. Particulars: 1 μM doxorubicin. The data set is classed as cell-based. The method, then: FIG. 18. FIG. 4. […] The doxorubicin-induced cell death were evaluated by cleaved caspase 3 using western blot.
FIG. 19. FIG. 4. […] The 5-hmC level were detected using immunostaining.

In a further data set the test system is Irg1. The data set is described as follows: Irg1 mRNA transcript expression in preserved murine donor hearts. The arrangement: species or system mouse. Particulars: 16 hours preservation without reperfusion and during ex vivo perfusion. The method, then:
as §1

The conditions of data set [4]: cited from earlier work.
A further data set relates to mice. Description: Doxorubicin-induced cardiotoxicity in mice. The data set is classed as in vivo, mouse. To be noted: 5 mg/Kg doxorubicin for 5 weeks, I.P. every 3.5 days. The method, then:
FIG. 16. […] 6-week mice were treated with 5 mg/Kg doxorubicin for 5 weeks. […] There are improved ejection fraction, stroke volume, and increased heart and lung weight in itaconate-treated groups compared to saline-treated groups.
FIG. 17. […] 6-week mice were treated with 5 mg/Kg doxorubicin for 5 weeks.

Where [5] appears, read: donor mice treated 4-OI 50 mg/kg intraperitoneally 2 hours prior to procurement, 16 hours of preservation, ex vivo perfusion.
Setting [6] is: compared to saline-treated groups.

The structures appear in SMILES notation.

The values that follow come from patent publication US20240341301A1 (The Regents of the University of Michigan, priority 2023, published 2024).

In the case of `C=C(CC(=O)OCCCCCCCC)C(=O)O` [4-OI, 4-octyl itaconate], in the data set with murine donor hearts [1] (setting [5]), the cardiac contractility entry is on record as “improved” and the cardiac relaxation result is recorded as “improved”. In the data set on murine donor hearts [2], the “NRF2 nuclear translocation in cardiac tissue” value is given as “increased” and the “oxidative DNA damage (8-OHdG fluorescence)” value is reported as “reduced”. For the same compound, in data set [3], the HO1 protein abundance result was “enhanced”, the NRF2 result is reported as “no changes” and the SOD1 protein abundance result was “enhanced”.

Turning to `COc1cccc2c1C(=O)c1c(O)c3c(c(O)c1C2=O)C[C@@](O)(C(=O)CO)C[C@@H]3O[C@H]1C[C@H](N)[C@H](O)[C@H](C)O1` [Doxorubicin, doxorubicin], the 5-hmC level result in the data set on H9C2 cardioblast (immunostaining) is reported as “induces accumulation”.

For the compound `O=C(CCCCCCC(=O)Nc1ccccc1)NO` [SAHA, Suberoylanilide hydroxamic acid], the Irg1 transcript expression result with Irg1 is “increased”. Moreover, in the data set with murine donor hearts [1], the “ex vivo donor heart contractility” value is “improved” and the “ex vivo donor heart relaxation” value is recorded as “improved”. The water solubility entry in data set [4] is “poorly water soluble”.

With `CC(/C=C/C(=O)NO)=C\[C@@H](C)C(=O)c1ccc(N(C)C)cc1` [TSA, Trichostatin A], the Irg1 transcript expression result in the data set with Irg1 is given as “increased”. In the data set with murine donor hearts [1], the “ex vivo donor heart contractility” value is reported as “improved” and the “ex vivo donor heart relaxation” value is given as “improved”. For the same compound, the water solubility result in data set [4] was “poorly water soluble”.

Consider `C=C(CC(=O)O)C(=O)O` [itaconate], for which, in the data set with murine donor hearts [1] (after 16 hours of storage), the “murine donor heart function” value is “improved”. Besides, the “cardiomyocyte apoptosis (cleaved caspase 3, western blot)” value in the data set with H9C2 cardioblast (2 mM itaconate, 18 hours) is on record as “reduced”. For the same compound, the “doxorubicin induced 5-hmC accumulation” value with H9C2 cardioblast (2 mM itaconate, immunostaining) is given as “reduce”. The “serum cTnI level” value in the data set with mice is “reduced”. Also, in the data set on mice (setting [6]), the ejection fraction entry is listed as “improved”; the “heart and lung weight” value was “increased”; the stroke volume result is “improved”. In data set [3] (itaconate 10 mM in HTK, normoxic (20% O2) and hypoxic (1% O2), 2 hours), the “antioxidant expression (HO1, SOD1)” value is listed as “increased”. For the same compound, in data set [3], the HO1 protein abundance entry is on record as “enhanced”, the NRF2 result was “no changes” and the SOD1 protein abundance result is “enhanced”.
